Earlier results in patent publication US20090280177A1, “Pharmaceutical preparation for treating fibromyalgia” (priority 2006, published 2009).

Columns and labels:
[1] = system: peripheral blood-adhesive cells from chronic rheumatoid arthritis patients
[2] = system: T cell-independent antigen
[3] = system: T cells; settings: dose-dependent manner
[4] = system: T cell-dependent antigen; settings: dose-dependent manner

## O=C(O)c1cc(/N=N/c2ccc(S(=O)(=O)Nc3ccccn3)cc2)ccc1O [salazosulfapyridine, 2-Hydroroxy-5-[4-(pyridine-2-ylsulfamoyl)phenylazo] benzoic acid]
[1]
  production of IL-1 and IL-6: suppress
[2]
  immune response to a T cell-independent antigen: hardly suppressed
[3]
  IL-2 production: suppress
[4]
  immune response to a T cell-dependent antigen: suppressed
